Assay results reported in patent publication US5359121A, “Glycine derivative monosodium salt tetrahydrate” (Ono Pharmaceutical Co., Ltd., priority 1991, dated 1994).

Legend:
[1] = Experiment of hygroscopicity; format: physicochemical; details: exposure to air / 25° C., humidity of 75%
Protocol: The hygroscopicity of each compound was measured by the ratio of its weight to lapse of time.

SMILES	hygroscopicity (result in words) [1]	toxicity (Toxicity)	hygroscopicity (result in words) ([1]; listed as the monosodium salt of the compound of the formula (II), monosodium salt)	hygroscopicity (result in words) ([1]; monosodium salt)
CC(C)(C)C(=O)Oc1ccc(S(=O)(=O)Nc2ccccc2C(=O)NCC(=O)[O-])cc1.O.O.O.O.[Na+] [the present invention compound, N-[o-(p-pivaloyloxybenzenesulfonylamino)benzoyl]glycine monosodium salt tetrahydrate]	no change of its weight	very low	–	–
CC(C)(C)C(=O)Oc1ccc(S(=O)(=O)Nc2ccccc2C(=O)NCC(=O)[O-])cc1.[Na+] [the comparison compound, N-[o-(p-pivaloyloxybenzenesulfonylamino)benzoyl]glycine monosodium salt]	–	–	hygroscopic	increased its weight with lapse of time
